Experimental data from US5527900A, “N3-alkyl-2',5'-0-silylated-3'-spiro-thymidine derivatives” (Stitching Rega VZW, priority 1991, dated 1996).
≈ marks a conversion by molar mass, not a printed value. Where two headings read alike, the source gives them in different places.

Experiments:
HIV-1 (HTLV-IIIB) = assay: Anti-retrovirus activity: inhibition of HIV-1-induced cytopathogenicity in MT-4 cells; assay type: cell-based; conditions: for EC50: Human immunodeficiency virus 1, IIIB, MT4, 120 h; for S.I. (Selectivity Index): CC50/EC50, MT-4 cells
Source text: The viruses used were moloney murine sarcoma virus (MSV), HIV-1 (strain HTLV-IIIB, kindly provided by R. C. Gallo and M. Popovic, National Cancer Institute, Bethesda, Md.), HIV-2 (strain LAV-2(ROD)), kindly provided by L. Montagnier (Pasteur Institute, Paris, France), simian immunodeficiency virus (SIV) (strain SIVMAC251, kindly provided by C. Bruck, RIT-Smith-Kline, Rixensart, Belgium).
(§1) In order to evaluate the inhibitory effects against retrovirus-induced cytopathogenicity in MT-4cells, said cells (5×10^5 cells/ml) were suspended in fresh culture medium and infected with HIV-1, HIV-2 or SIOV at 100 times the cell culture infective dose-50 (CCID50) per ml cell suspension (1 CCID50 being the dose infective for 50% of the cell cultures). Then, 100 μl of the infected cell suspension were transferred to microplate wells, mixed with 100 μl of the appropriate dilutions of the test compounds, and further incubated at 37° C. After 5 days, the number of viable cells was determined in a blood cell-counting chamber by trypan blue staining for both virus-infected and mock-infected cell cultures.

in vitro = conditions: human, mt-4 cells
Experimental: as §1

[1] = Partition coefficient (Pa) between 1-octanol and 10 mM potassium phosphate buffer; assay type: physicochemical; conditions: 1-octanol / 10 mM potassium phosphate buffer, pH 7.5, 50 μM; for logD at 50 µM: room temperature
Experimental: Partition of the test compounds between 1-octanol (Merck, Darmstadt, Germany) and 10 mM potassium phosphate buffer, pH, 7.5 (Merck), was measured as described in Balzarini et al., Biochem, Biophys. Res. Commun. 158: 413-422 (1989). Briefly, a 50 μM concentration of the test compound in potassium phosphate buffer was thoroughly mixed with an equal volume of 1-octanol for 30 min at room temperature. Then, the mixture was further equilibrated at room temperature and UV absorption was measured for the aqueous and alcoholic liquid phases. The partition coefficient (Pa) was calculated as the ratio of the compound concentration present in the 1-octanol phase to the compound concentration present in the aqueous phase.

MT-4 cell RNA synthesis = assay: Incorporation of radiolabeled precursors into MT-4 cell RNA; assay type: cell-based; conditions: Homo sapiens, MT4, MT-4 cells, 20 to 24 hr
Source text: (§2) The radiolabeled nucleosides [methyl-^3 H]dThd (specific radioactivity: 40 Ci/mmol), [5-^3 H]dUrd (specific radioactivity: 27 Ci/mmol), [5-^3 H]dCyc (specific radioactivity: 18.2 Ci/mmol) and the radiolabeled amino acid L-[4,5-^3 H]leucine (specific radioactivity: 52 Ci/mmol were derived from the Radiochemcial Centre (Amersham, England); [5-^3 H]Urd (specific radioactivity: 21 Ci/mmol) and [5-^3 H]Cyd (specific radioactivity: 21 Ci/mmol) and were obtained from Moravek Biochemicals Inc. (Brea, Calif.)
(§3) The incorporation of [methyl-^3 H]dThd, [5-^3 H]dUrd, [5-^3 H]dCyd, [5-^3 H]Urd, [5-^3 H]Cyd and L-[4,5-^3 H]1eu into TCA-insoluble MT-4 cell material was measured in wells of a 96-well microtiter plate (Falcon-3072, Becton-Dickinson, New Jersey). To each well were added 10^5 MT-4 cells, 0.25 μCi of the radiolabeled precursor and a given amount of test compound. The cells were allowed to proliferate for 20 to 24 hr at 37° C. in a humidified, CO2 -controlled atmosphere. At the end of this incubation period, the contents of the wells (200 μl) were brought onto 25-mm glass fiber filters (type A/E, Gelman Instrument Company, Ann Arbor, Mich.), and mounted on a Millipore 3025 sampling manifold apparatus. The filters were washed twice with 2 ml and 5 ml cold NaCl/Pi (phosphte-buffered saline), twice with 2 and 5 ml cold 10% trichloroacetic acid (TCA), twice with 5 and 7.5 ml cold 5% TCA, and twice with 1 ml cold ethanol.

[2] = system: MT-4 cell protein synthesis; assay: Incorporation of radiolabeled leucine into MT-4 cell protein; assay type: cell-based; conditions: Homo sapiens, MT4; MT-4 cells, 20 to 24 hr; read-out: IC50, L-[4,5-3H]leucine incorporation
Source text: as §2, §3

MT-4 cell DNA synthesis = assay: Incorporation of radiolabeled precursors into MT-4 cell DNA; assay type: cell-based; conditions: Homo sapiens, MT4, MT-4 cells, 20 to 24 hr
Source text: as §2, §3

MT-4 cells = assay: Cytotoxicity for mock-infected MT-4 cells; conditions: for cytotoxicity to MT-4 cells (in words): at 100 μg/ml
Experimental: as §1

[3] = system: MT-4 cell DNA, RNA or protein synthesis; assay: Incorporation of radiolabeled DNA, RNA or protein precursors into TCA-insoluble MT-4 cell material (summary in words); assay type: cell-based; conditions: for inhibition of incorporation of dThd, dUrd, dCyd, Urd, Cyd or leucine: at 100 μg/ml
Source text: as §2, §3

HIV-1 = assay: Antiviral activity upon delayed addition to HIV-1-infected MT-4 cells; assay type: cell-based
Experimental: as §1
Mt-4 cells were suspended in culture medium, infected with HIV-1 and brought into microplate wells as described above. […] After 5 days, the number of viable cells was determined and the EC50 and CC50 values for the test compounds were defined as described in example 1.

HIV-2 strain (EHO) = assay: Activity against HIV-2 strain EHO; assay type: cell-based
[4] = read-out: IC50, [5-3H]Cyd incorporation
[5] = read-out: IC50, [5-3H]Urd incorporation
[6] = read-out: IC50, [5-3H]dCyd incorporation
[7] = read-out: IC50, [5-3H]dUrd incorporation
[8] = read-out: IC50, [methyl-3H]dThd incorporation

| Compound | CC50 at 120 h (in vitro) [µg/mL] | logD at 50 µM [1] | EC50 (HIV-1 (HTLV-IIIB)) [µg/mL] | S.I. (Selectivity Index) (HIV-1 (HTLV-IIIB); Table 1) | presence in the n-octanol phase compared to the aqueous phase [1] | also measured |
| --- | --- | --- | --- | --- | --- | --- |
| Cc1cn([C@@H]2O[C@H](CO)[C@@]3(OS(=O)(=O)C=C3N)[C@H]2O)c(=O)[nH]c1=O [Compound 1] | > 100 | -0.932 | – | – | – | EC50 (HIV-1 (HTLV-IIIB); Table 1, HIV-1 in MT-4 cells, 5 days, read-out: EC50): > 100 µg/mL |
| Cc1cn([C@@H]2O[C@H](CO)[C@@]3(OS(=O)(=O)C=C3N)[C@H]2O[Si](C)(C)C(C)(C)C)c(=O)[nH]c1=O [Compound 2] | 106 (≈ 223 µM) | > 1.3 | > 40 | < 2,5 | more than 95% | – |
| Cc1cn([C@@H]2O[C@H](CO[Si](C)(C)C(C)(C)C)[C@@]3(OS(=O)(=O)C=C3N)[C@H]2O)c(=O)[nH]c1=O [Compound 3] | 45 (≈ 94.6 µM) | > 1.3 | > 20 | < 2 | more than 95% | – |
| Cc1cn([C@@H]2O[C@H](COC(=O)c3ccccc3)[C@@]3(OS(=O)(=O)C=C3N)[C@H]2O[Si](C)(C)C(C)(C)C)c(=O)[nH]c1=O [Compound 4] | 20 (≈ 34.5 µM) | > 1.3 | > 8 | < 2,5 | more than 95% | – |
| C=CCn1c(=O)c(C)cn([C@@H]2O[C@H](CO[Si](C)(C)C(C)(C)C)[C@@]3(OS(=O)(=O)C=C3N)[C@H]2O[Si](C)(C)C(C)(C)C)c1=O [Compound 8, {1-[2', 5'-Bis-O-(tert-butyldimethylsilyl)-β-D-ribofuranosyl]-3-N-allyl-thymine}-3'-spiro-5"{4"-amino-1", 2"-oxathiole-2", 2"-dioxide}] | > 200 | > 1.3 | 0.141 (≈ 0.224 µM) | > 1418 | more than 95% | IC50 (MT-4 cell RNA synthesis; [4]): > 100 µg/mL; IC50 (MT-4 cell RNA synthesis; [5]): > 100 µg/mL; IC50 [2]: > 100 µg/mL; IC50 (MT-4 cell DNA synthesis; [6]): > 100 µg/mL; IC50 (MT-4 cell DNA synthesis; [7]): > 100 µg/mL; IC50 (MT-4 cell DNA synthesis; [8]): > 100 µg/mL; cytotoxicity to MT-4 cells (in words) (MT-4 cells): not cytotoxic; inhibition of incorporation of dThd, dUrd, dCyd, Urd, Cyd or leucine [3]: did not markedly inhibit |
| CCc1cn([C@@H]2O[C@H](CO[Si](C)(C)C(C)(C)C)[C@@]3(OS(=O)(=O)C=C3N)[C@H]2O[Si](C)(C)C(C)(C)C)c(=O)[nH]c1=O [Compound 10, {1-[2', 5'-Bis-O-(tert-butyldimethylsilyl)-β-D-ribofuranosyl]-5-ethyl-uracil}-3'-spiro-5"-{4"-amino-1",2"-oxathiole-2",2"-dioxide}] | 3.2 (≈ 5.3 µM) | – | 0.038 (≈ 0.0629 µM) | 82 | – | decrease of antiviral activity on delayed addition (HIV-1; addition delayed by 17-24 hours, data not shown): 10 fold; antiviral activity on delayed addition (HIV-1; addition delayed by 41 to 48 hours): almost totally lost |
| CC(C)(C)[Si](C)(C)OC[C@H]1O[C@@H](n2ccc(=O)[nH]c2=O)[C@H](O[Si](C)(C)C(C)(C)C)[C@]12OS(=O)(=O)C=C2N [Compound 11, {1-[2', 5'-Bis-O-(tert-butyldimethylsilyl)-β-D-ribofuranosyl]uracil}-3'-spiro-5"-{4"-amino-1", 2"-oxathiole-2", 2"-dioxide}] | 8.3 (≈ 14.4 µM) | > 1.3 | 0.114 (≈ 0.198 µM) | 73 | more than 95% | IC50 (MT-4 cell RNA synthesis; [4]): 11 µg/mL (≈ 19.1 µM); IC50 (MT-4 cell RNA synthesis; [5]): 11 µg/mL (≈ 19.1 µM); IC50 [2]: 14 µg/mL (≈ 24.3 µM); IC50 (MT-4 cell DNA synthesis; [6]): 18 µg/mL (≈ 31.3 µM); IC50 (MT-4 cell DNA synthesis; [7]): 12 µg/mL (≈ 20.8 µM); IC50 (MT-4 cell DNA synthesis; [8]): 38 µg/mL (≈ 66 µM); inhibition of MT-4 cell proliferation (in words) (MT-4 cells): inhibitory to MT-4 cell proliferation; cytotoxicity to MT-4 cells (in words) (MT-4 cells): not cytotoxic; inhibition of incorporation of precursors relative to inhibition of MT-4 cell proliferation ([3]; Table 2 discussion): equally inhibitory; preferential inhibition of incorporation of one precursor over the others ([3]; Table 2 discussion): neither; inhibition of incorporation of dThd, dUrd, dCyd, Urd, Cyd or leucine [3]: did not markedly inhibit |
| CC(C)(C)[Si](C)(C)OC[C@H]1O[C@@H](n2cc(Br)c(=O)[nH]c2=O)[C@H](O[Si](C)(C)C(C)(C)C)[C@]12OS(=O)(=O)C=C2N [Compound 12] | 2.35 (≈ 3.59 µM) | – | 0.206 (≈ 0.315 µM) | 11 | – | activity against HIV-2 strain (EHO) (HIV-2 strain (EHO)): inactive |
| C=CCn1c(=O)ccn([C@@H]2O[C@H](CO[Si](C)(C)C(C)(C)C)[C@@]3(OS(=O)(=O)C=C3N)[C@H]2O[Si](C)(C)C(C)(C)C)c1=O [Compound 13, {1-[2', 5'-Bis-O-(tert-butyldimethylsilyl)-62 -D-ribofuranosyl]-3-N-allyl-uracil}-3'-spiro-5"-{4"-amino-1", 2"-oxathiole-2", 2"-dioxide}] | 5.31 (≈ 8.62 µM) | – | 0.364 (≈ 0.591 µM) | 15 | – | – |
| CC(=O)Nc1ccn([C@@H]2O[C@H](CO[Si](C)(C)C(C)(C)C)[C@@]3(OS(=O)(=O)C=C3N)[C@H]2O[Si](C)(C)C(C)(C)C)c(=O)n1 [Compound 15, {4-N-Acetyl-1-[2', 5'-bis-O-(tert-butyldimethylsilyl)-β-D-ribofuranosyl]cytosine}-3'-spiro-5"-{4"-amino-1",2"-oxathiole-2",2"-dioxide}] | 7.5 (≈ 12.2 µM) | > 1.3 | 0.097 (≈ 0.157 µM) | 77 | more than 95% | – |
| CC(C)(C)[Si](C)(C)OC[C@H]1O[C@@H](n2cnc3c(N)ncnc32)[C@H](O[Si](C)(C)C(C)(C)C)[C@]12OS(=O)(=O)C=C2N [Compound 17] | 7.3 (≈ 12.2 µM) | – | 0.162 (≈ 0.271 µM) | 45 | – | activity against HIV-2 strain (EHO) (HIV-2 strain (EHO)): inactive |
